# Measurements taken from US7964219B2, “Pharmaceutical compositions for controlled release delivery of biologically active compounds” (QPS, LLC, priority 2004, dated 2011).
# Experiments:
# [1] = Stability of octreotide in injectable formulations at room temperature by HPLC (Example 12)
# Experimental: Injectable formulations of octreotide were prepared by dispersing octreotide in polymer solution in an appropriate solvent. […] The mixture was thoroughly mixed until a uniform suspension or solution was obtained. Six injectable formulations were prepared as shown below.
# The stability of octreotide in the above injectable formulations at room temperature was monitored by HPLC and the results are shown in the table below.
# [2] = Release of octreotide in vivo in rats by implant retrieval (Example 14); design: species or system Sprague-Dawley male rats; details: PLGA/NMP vehicle, after 24 h
# Experimental: Poly(DL-lactide-co-glycolide) (PLGA) was dissolved in N-methyl-2-pyrrolidone (NMP), or methoxypolyethylene glycohol (mPEG) to give a 40% solution by weight. The injectable formulations were prepared by dispersing octreotide phytate or acetate. The mixture was thoroughly mixed until a uniform suspension or solution was obtained. These formulations of octreotide (roughly about 100 uL) were administered subcutaneously in the back of the Sprague-Dawley male rats. The release of octreotide was determined by implant retrieval at predefined time intervals (30 min for group G and 24 h for groups A through F) after ministration and analysis of the octreotide remaining in the implant.
# [3] = Stability of octreotide in injectable formulations at room temperature by HPLC (Example 13); type: physicochemical; details: PLGA/NMP vehicle, after 24 h
# Experimental: The injectable polymer solutions were prepared by dispersing octreotide phytate or acetate or citrate. […] Injectable formulations were prepared as shown below.
# It appears that both salt forms of octreotide and the solvent affect the stability of octreotide. In terms of the stability of octreotide, mPEG is preferred than NMP and phytate complex form of octreotide is preferred than acetate and citrate salt of octreotide.
SMILES,"octreotide degraded or acylated ([1]; PLGA solution in NMP, room temperature)",Stability of octreotide (degraded or reacted) ([1]; after three days at room temperature),degradation/reaction of octreotide in vivo [2],degradation/reaction of octreotide in vitro [3]
C[C@@H](O)[C@@H]1NC(=O)[C@H](CCCCN)NC(=O)[C@@H](Cc2c[nH]c3ccccc23)NC(=O)[C@H](Cc2ccccc2)NC(=O)[C@@H](NC(=O)[C@H](N)Cc2ccccc2)CSSC[C@@H](C(=O)N[C@H](CO)[C@@H](C)O)NC1=O [octreotide acetate],~100%,significant amount of the octreotide was degraded or reacted,,
C[C@@H](O)[C@@H]1NC(=O)[C@H](CCCCN)NC(=O)[C@@H](Cc2c[nH]c3ccccc23)NC(=O)[C@H](Cc2ccccc2)NC(=O)[C@@H](NC(=O)[C@H](N)Cc2ccccc2)CSSC[C@@H](C(=O)N[C@H](CO)[C@@H](C)O)NC1=O [octreotide],,,30%,85%
